Source: patent EP1038880B1, “Androstanes and pregnanes for allosteric modulation of GABA receptor” (priority 1994, dated 1995)

Key:
[1] = target: T1, Hippocampal Mineralocorticoid Receptors (Rattus norvegicus, UniProt P22199); assay: Inhibition of 3H-aldosterone binding, brain cytosol; set-up: species or system rats; settings: competitor 10^-6M; 3 nM 3H-aldosterone, RU28362 0.5 µM
T1 construct: To isolate the mineralocorticoid receptor, brain cytosol fractions were prepared; from tissue; host or cells: rat brain (hippocampal) cytosol
T1 sequence (P22199 1-981): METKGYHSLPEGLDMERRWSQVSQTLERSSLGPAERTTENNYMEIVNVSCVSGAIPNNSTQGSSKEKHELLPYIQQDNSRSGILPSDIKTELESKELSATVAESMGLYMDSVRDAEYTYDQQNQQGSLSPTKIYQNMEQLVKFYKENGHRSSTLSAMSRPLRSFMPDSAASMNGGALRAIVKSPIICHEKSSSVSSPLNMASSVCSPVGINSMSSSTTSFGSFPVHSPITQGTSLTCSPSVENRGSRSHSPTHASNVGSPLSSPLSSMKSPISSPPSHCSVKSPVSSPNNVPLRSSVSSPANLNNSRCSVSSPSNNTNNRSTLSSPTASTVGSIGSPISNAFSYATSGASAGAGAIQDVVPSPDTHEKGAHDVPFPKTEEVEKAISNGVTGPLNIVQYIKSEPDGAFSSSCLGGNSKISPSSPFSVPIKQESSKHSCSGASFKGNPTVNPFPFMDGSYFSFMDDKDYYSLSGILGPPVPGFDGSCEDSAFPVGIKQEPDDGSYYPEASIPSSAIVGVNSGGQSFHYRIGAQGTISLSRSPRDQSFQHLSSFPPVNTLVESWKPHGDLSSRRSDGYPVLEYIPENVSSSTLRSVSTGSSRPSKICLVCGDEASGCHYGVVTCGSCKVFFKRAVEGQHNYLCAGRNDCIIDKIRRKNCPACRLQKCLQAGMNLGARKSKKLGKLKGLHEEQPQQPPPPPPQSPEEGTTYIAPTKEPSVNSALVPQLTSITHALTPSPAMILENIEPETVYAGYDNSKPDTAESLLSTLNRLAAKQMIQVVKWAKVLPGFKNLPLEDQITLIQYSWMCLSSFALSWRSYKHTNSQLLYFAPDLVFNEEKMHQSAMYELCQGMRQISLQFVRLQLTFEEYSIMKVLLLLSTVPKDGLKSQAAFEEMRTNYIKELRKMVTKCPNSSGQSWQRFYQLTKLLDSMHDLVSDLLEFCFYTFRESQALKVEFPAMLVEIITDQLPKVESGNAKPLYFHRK
Method: (§1) Various hormonal activities of representative neuroactive steroids were further studied through testing their potential estrogenic, mineralocorticoid and glucocorticoid activities. These activities were analyzed by monitoring the ability of the compounds to inhibit binding of the steroid hormones to their respective hormone receptors.
In Table 3, rats were adrenalectomized 3 days prior to sacrifice. […] Table 2. Inhibition of 3H-Progesterone Binding to the Bovine Uteral Progesterone Receptors
Table 3. Inhibition of 3H-Aldosterone Binding to Hippocampal Mineralocorticoid Receptors

Glucocorticoid Receptors = target: T2, Glucocorticoid Receptors (Rattus norvegicus, UniProt P06536); assay: Inhibition of 3H-dexamethasone binding, brain cytosol; set-up: species or system rats; dose or concentration left out as unconfirmed; settings: read-out: % of Inhibition
T2 construct: from tissue; host or cells: rat brain cytosol
T2 sequence (P06536 1-795): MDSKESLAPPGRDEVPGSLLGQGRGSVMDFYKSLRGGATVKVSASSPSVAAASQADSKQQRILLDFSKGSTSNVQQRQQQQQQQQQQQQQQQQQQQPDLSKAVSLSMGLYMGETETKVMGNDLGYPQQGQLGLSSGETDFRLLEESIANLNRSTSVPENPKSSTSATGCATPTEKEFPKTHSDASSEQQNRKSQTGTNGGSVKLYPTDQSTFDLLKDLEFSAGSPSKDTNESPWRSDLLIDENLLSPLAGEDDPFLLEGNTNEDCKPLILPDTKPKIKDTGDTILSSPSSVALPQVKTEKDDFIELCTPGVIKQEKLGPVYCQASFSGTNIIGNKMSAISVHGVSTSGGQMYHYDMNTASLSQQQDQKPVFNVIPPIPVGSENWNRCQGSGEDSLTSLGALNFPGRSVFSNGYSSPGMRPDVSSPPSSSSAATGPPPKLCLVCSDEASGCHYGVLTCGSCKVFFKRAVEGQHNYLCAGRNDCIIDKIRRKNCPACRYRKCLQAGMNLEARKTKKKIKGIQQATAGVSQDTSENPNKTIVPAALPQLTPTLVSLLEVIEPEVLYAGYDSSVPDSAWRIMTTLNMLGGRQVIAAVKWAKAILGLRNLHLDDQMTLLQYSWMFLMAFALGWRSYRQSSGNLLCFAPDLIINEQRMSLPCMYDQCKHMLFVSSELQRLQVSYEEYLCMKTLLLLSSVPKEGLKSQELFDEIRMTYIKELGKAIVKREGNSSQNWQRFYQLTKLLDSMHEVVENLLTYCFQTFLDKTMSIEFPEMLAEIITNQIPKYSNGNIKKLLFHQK
Method: as §1
For Table 4, brain cytosol fractions were prepared as for Table 3, and the compounds were incubated with 3 nM of ^3H-dexamethasone (the specific ligand for the glucocorticoid receptor).

(+)bicuculline = assay: Anticonvulsant test against (+)bicuculline; assay type: in vivo, mice; settings: Mus musculus, read-out: ED50 BIC
Method: The anticonvulsant tests are similar to that described above. […] The number of animals with tonic and/or clonic convulsions was recorded. In the maximal electroshock test, 50 mA of current at 60 Hz was delivered through corneal electrodes for 200 msec to induce tonic seizure. The ability of compounds to abolish the tonic component was defined as the endpoint. General CNS depression potential was determined by a rotorod test 10 minutes after the injection of compounds where the number of mice staying on a rotating (6 rpm) rod for 1 minute in one of the three trials was determined. […] Table 7. Anticonvulsant Activity of Exemplified Neuroactive Steroids and those of Selected Clinically Useful Anticonvulsants in Mice

Structure (SMILES) | inhibition at 1 µM [1] [%] | inhibition (Glucocorticoid Receptors) [%] | ED50 ((+)bicuculline) [mg/kg]
C[C@]12CC[C@@H](O)C[C@@H]1CC[C@@H]1[C@@H]2CC[C@]2(C)[C@@H](C(=O)CO)CC[C@@H]12 [3α,21-dihydroxy-5α-pregnan-20-one] | 76.7 | 29.5 | 17.8
CC(=O)[C@H]1CC[C@H]2[C@@H]3CC[C@H]4C[C@H](O)CC[C@]4(C)[C@H]3CC[C@]12C [3α-Hydroxy-5α-pregnan-20-one, 3α-hydroxy-5α-pregnan-20-one] |  | 8.7 | 12.3
